Calls of active or inactive are those of the source.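 Rule for the calls: active = caspase luminescence falls with dose and the half-maximal concentration AC50 from the fitted curve is at or below a set limit; inconclusive = flat fit at 30 to 70% signal loss, or invalid fit; inactive = AC50 above the limit, or signal rises instead.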

The test system of this test is INS-1E cytokine-induced caspase-3/7, Caspase-Glo luminescence, 48 h. The test is described as follows: suppression of cytokine-driven beta-cell apoptosis – INS-1E rat cells, luminescence, orthogonal assay for beta-cell apoptosis protection project, dose response (AID 463206).
Usually AC50 stands for the concentration giving half of the maximal activity seen. Take `c1ccc(-c2csc3ncnc(NCC4COc5ccccc5O4)c23)cc1` (centres undefined): the AC50 is > 26 µM (inactive).

Regarding `Cc1ccc(C(C)C)c(OCc2ccc(C(=O)N/N=C/c3cccc(O)c3O)cc2)c1`, the AC50 is > 26 µM (inactive).

Take `COc1ccc(S(=O)(=O)/N=C2\C=C(Nc3ccc(O)cc3)C(=O)c3ccccc32)cc1`: the AC50 is > 26 µM (inactive).

As for `CC(C(c1cccs1)c1c(N)n(C)c(=O)n(C)c1=O)[N+](=O)[O-]` (centres undefined), the AC50 was > 26 µM (inactive).

Consider `O=C(Nc1ccc(Br)c(C(F)(F)F)c1)c1ccc(C(F)(F)F)cc1`, for which the AC50 was > 26 µM (inactive).

For the molecule `C/C(=N/NC(=O)CN(c1ccccc1)S(=O)(=O)c1ccccc1)c1ccccc1O`, the AC50 is > 26 µM (inactive).

Turning to `c1ccc2c(c1)ncn2CCCCOc1ccc2c(c1)CCC2`, the AC50 is > 26 µM (inactive).

Take `CCCCNc1c(-c2cccc(-c3ccc(OC)cc3)c2)nc2ccc(C)cn12`: the AC50 is > 26 µM (inactive).

In the case of `CC(C)C[C@H](NC(=O)c1nc[nH]c1C(=O)N[C@@H](CC(C)C)C(=O)OC(C)(C)C)C(=O)OCc1ccccc1`, the AC50 is > 26 µM (inactive).

Consider `CC(C)(C)n1[nH]c2c3c(ccc2c1=O)C(=O)c1ccccc1C3=O`, for which the AC50 is > 26 µM (inactive).

In the case of `Cc1cc(C(C)(C)CC(C)(C)C)ccc1OCCOCC[N+](C)(C)Cc1ccccc1`, the AC50 is > 26 µM (inactive).

`COc1cccc(/C=N/NC(=O)c2c(C)nc3ccc(Br)cn23)c1O`: the AC50 was > 26 µM (inactive).

For the molecule `Oc1c(C(Nc2ccccn2)c2cccnc2)cc(Cl)c2cccnc12` (centres undefined), the AC50 is > 26 µM (inactive).

As to `Cc1ccc(Nc2nc(NCc3ccco3)c3ccccc3n2)cc1`, the AC50 was > 12 µM (inactive).

Regarding `Cc1ccc(C(C)C)c(OCc2nn(CC(=O)c3ccc(Cl)cc3)c3[n+]2CCCCC3)c1`, the AC50 is > 26 µM (inactive).

Take `Cc1cc(N/N=C/c2cccc(Cl)c2)nc(-n2nc(C)cc2C)n1`: the AC50 is > 26 µM (inactive).

As for `O=C(CN(Cc1ccco1)Cc1ccco1)Nc1cc(S(=O)(=O)N2CCCCC2)ccc1Cl`, the AC50 was > 26 µM (inactive).

Turning to `CC(C)(C)C(=O)Nc1ccc(C(=O)N/N=C/c2ccccc2OC(=O)c2ccc(Cl)cc2)cc1`, the AC50 is > 26 µM (inactive).

In the case of `O=C1C=C(N2CCOCC2)c2ccccc2C1=O`, the AC50 is > 26 µM (inactive).

Turning to `Cc1ccc(C2CC(c3cccc(Br)c3)n3nc(N)nc3N2)cc1` (centres undefined), the AC50 was > 26 µM (inactive).

As to `CCC(=O)NC(c1ccccc1OC)c1ccc2cccnc2c1O` (centres undefined), the AC50 is > 26 µM (inactive).

In the case of `COc1ccc(CCNc2ccc(C(CC(N)=O)NC(=O)c3ccc(Br)cc3)cc2[N+](=O)[O-])cc1` (centres undefined), the AC50 is > 26 µM (inactive).

Regarding `O=C(N/N=C/c1ccc(O)cc1O)/C(=C/c1ccccc1)CCO`, the AC50 was > 26 µM (inactive).

Regarding `Cc1ccc(C(=O)NC2CCCc3c2cnn3-c2ccc(F)cc2F)cn1` (centres undefined), the AC50 was > 26 µM (inactive).

Regarding `N#Cc1c(Nc2ccccc2)sc(C(=O)c2ccc(F)cc2)c1N`, the AC50 was > 26 µM (inactive).

As to `Cc1cccc2c(C(=O)N3CCN(c4ccccn4)CC3)cc(-c3cccc(Br)c3)nc12`, the AC50 was > 26 µM (inactive).

On to `CCn1c(/C=C/c2ccc([N+](=O)[O-])o2)nc2ccccc2c1=O`, for which the AC50 is > 26 µM (inactive).

For the molecule `COc1ccc(NC(=O)c2c(Nc3ccccc3)sc(C(=O)c3ccc(F)cc3)c2N)cc1`, the AC50 is > 26 µM (inactive).

On to `CCN1/C(=C/C=C/c2sc3ccccc3[n+]2CC)Sc2ccccc21`, for which the AC50 is > 26 µM (inactive).

Consider `C/C(=N\NC(=O)C(c1ccccc1)c1ccccc1)c1ccccn1`, for which the AC50 was > 26 µM (inactive).

On to `O=C(NCc1cccnc1)c1ccc(-c2cc3ccccc3oc2=O)cc1`, for which the AC50 is > 26 µM (inactive).

With `COc1ccc2c(c1)C(=O)[C@H](O)[C@@H](c1ccc(OC)c(Br)c1)O2`, the AC50 is > 26 µM (inactive).

Take `O=C1CSC(c2ccccc2F)N1` (centres undefined): the AC50 is > 26 µM (inactive).

With `O=c1cnnc(N/N=C/c2ccccn2)[nH]1`, the AC50 is > 26 µM (inactive).

As for `O=C(Nc1nc(-c2ccccn2)cs1)Nc1ccc(F)cc1F`, the AC50 was > 26 µM (inactive).

For the molecule `CCN(CC)CCCNC1=C(Cl)C(=O)c2ccccc2C1=O`, the AC50 is > 26 µM (inactive).

Turning to `Cc1sc2ncnc(NCC(C)(C)N3CCOCC3)c2c1C`, the AC50 is > 26 µM (inactive).

Turning to `C/C(=N\NC(=O)c1ccc(Cl)cc1)c1ccccn1`, the AC50 is > 26 µM (inactive).

`C#CCOCCOCCOCCNc1nc(N2CCN(C(=O)CCCCCCCCCCNC(=O)[C@@H](CCSC)n3cc(CCO)nn3)CC2)nc(N2CCN(C(=O)CCCCCCCCCCNC(=O)[C@H]([C@@H](C)CC)n3cc(CCCCCN)nn3)CC2)n1`: the AC50 was > 26 µM (inactive).

In the case of `CCn1cc(C(=O)O)c(=O)c2cc(F)c(N/N=C/c3ccccc3[N+](=O)[O-])cc21`, the AC50 is > 12 µM (inactive).

`CCN1c2ccccc2NC2N=C(OC)C(c3ccccc3)C21` (centres undefined): the AC50 is > 26 µM (inactive).

`COC(=O)c1cccc(NC(=O)Nc2ccc(Cl)c(Cl)c2)c1`: the AC50 was > 26 µM (inactive).

On to `COc1cc(/C=N/NC(=O)c2cccnc2)ccc1OC(=O)c1cc(OC)c(OC)c(OC)c1`, for which the AC50 was > 26 µM (inactive).

Regarding `CCn1c(C)nc2cc(-c3nnc(-c4c(-c5ccccc5)noc4C)o3)ccc21`, the AC50 is > 26 µM (inactive).

Regarding `OC(c1cc(-c2ccc(Cl)cc2)nc2ccccc12)C1CCCCN1` (centres undefined), the AC50 was > 26 µM (inactive).

Turning to `CC(C)CCCCCCNC(=S)Nc1ccc(S(=O)(=O)N2CCOCC2)cc1`, the AC50 was > 26 µM (inactive).

Regarding `CCC(CC)C(=O)c1c[nH]c(C(=O)NCc2ccccn2)c1`, the AC50 was > 26 µM (inactive).

`CCCCCCCCCn1ccc(=N)cc1`: the AC50 is > 26 µM (inactive).

As to `CC(C)(C)OC(=O)NCc1ccc(NC(=O)c2nc[nH]c2C(=O)NCCNC(=O)c2[nH]cnc2C(=O)Nc2ccc(CNC(=O)OC(C)(C)C)cc2)cc1`, the AC50 was > 26 µM (inactive).

On to `O=C1CSC(c2cccnc2)N1CC1CC1` (centres undefined), for which the AC50 is > 26 µM (inactive).

Take `CCC(=O)NC(c1ccc(C)cc1)c1cc([N+](=O)[O-])c2cccnc2c1O` (centres undefined): the AC50 is > 26 µM (inactive).

In the case of `O=C(Nc1ccc(Cl)cc1)c1nc[nH]c1C(=O)NCCN(CCNC(=O)c1[nH]cnc1C(=O)Nc1ccc(Cl)cc1)CCNC(=O)c1[nH]cnc1C(=O)Nc1ccc(Cl)cc1`, the AC50 is > 26 µM (inactive).

As for `Cc1cc(C)c(S(=O)(=O)/N=C2/C=C(Sc3ncn[nH]3)C(=O)c3ccccc32)cc1C`, the AC50 was > 26 µM (inactive).

For the molecule `Oc1cccc(C(Nc2nccs2)c2ccc3cccnc3c2O)c1` (centres undefined), the AC50 is > 26 µM (inactive).

Take `Cc1ccc(S(=O)(=O)NCc2ccncc2)cc1C`: the AC50 is > 26 µM (inactive).

For `C/C(=N\NC(=O)c1cc(-c2cccnc2)nc2ccccc12)c1ccc(O)cc1O`, the AC50 was > 26 µM (inactive).

For the molecule `CCOc1ccc(Nc2nc(Cc3nnc(SCC(=O)c4ccc(C)c(C)c4)o3)cs2)cc1`, the AC50 is > 26 µM (inactive).

On to `Cc1ccc2c(c1)[nH]c1c(N3CCN(Cc4ccccc4)CC3)ncnc12`, for which the AC50 was > 26 µM (inactive).

As for `O=C1C=C(Nc2ccccc2)C(=O)c2ccccc21`, the AC50 was > 26 µM (inactive).

For the molecule `CC(=O)c1cccc(NS(=O)(=O)c2ccc(N/C=C\C(=O)c3ccc(F)cc3)cc2)c1`, the AC50 is > 26 µM (inactive).

Take `Cc1ccc(NC2=CC(=O)C(=O)c3ccccc32)c(C)c1`: the AC50 was > 26 µM (inactive).

As for `Cc1cccc(-n2c(C)cc(/C=N/n3cnnc3)c2C)c1`, the AC50 was > 26 µM (inactive).

Regarding `Cc1ccc(-c2cc3cccc[n+]3cc2-c2ccc(C)cc2)cc1`, the AC50 was > 26 µM (inactive).

Consider `CN(C)CC(C(=O)c1ccccc1)c1ccccc1` (centres undefined), for which the AC50 was > 26 µM (inactive).

For the molecule `CCCCOc1ccc(-c2cc(C(=O)NNC(=S)NCC)c3ccccc3n2)cc1`, the AC50 was > 26 µM (inactive).

`CC(C)OCCCNc1ncnc2c1[nH]c1ccccc12`: the AC50 was > 26 µM (inactive).

For `c1cnc(N2CCN(Cc3c[nH]c4ccccc34)CC2)nc1`, the AC50 is > 26 µM (inactive).

`COc1cccc(Cn2c(NCc3ccco3)nc3c2c(=O)n(C)c(=O)n3C)c1`: the AC50 was > 26 µM (inactive).

For the molecule `Cc1nc2ccccc2nc1N/N=C/c1ccc(O)cc1O`, the AC50 was > 26 µM (inactive).

For `CCCCSc1ccc(NC(=O)c2cccnc2)cc1`, the AC50 is > 26 µM (inactive).

For the molecule `Cc1ccc(C(=O)N/C(=C\c2ccc(-c3ccc(Cl)cc3)o2)C(=O)NCCCN(C)C)cc1`, the concentration at half-maximal activity (AC50) was 11.9 µM.

As to `CCOC(=O)c1c(CSc2nc(C)cc(C)c2C#N)n(C)c2cc(Br)c(OC(C)=O)cc12`, the AC50 was > 26 µM (inactive).

Regarding `COc1ccc(C2=Nn3c(nnc3-c3ccccc3Cl)SC2)cc1OC1CCCC1`, the AC50 was > 26 µM (inactive).

As for `COc1ccccc1/C=N/OCc1cc(C(C)=O)ccc1OC`, the AC50 is > 26 µM (inactive).

Consider `Oc1c(CN2CCN(c3ccc(F)cc3)CC2)cc(Cl)c2cccnc12`, for which the AC50 is > 26 µM (inactive).

In the case of `Cc1cccn2c(Nc3ccccc3)c(-c3ccccn3)nc12`, the AC50 was > 26 µM (inactive).

Take `COc1cc(OC)c(NC2=CC(=O)C(=O)c3ccccc32)cc1Cl`: the AC50 is > 26 µM (inactive).

With `CCN(CC)c1ccc(/C=N/NC(=O)c2ccco2)c(O)c1`, the AC50 is > 26 µM (inactive).

Regarding `CCOc1ccccc1NC(=O)c1nc(S(=O)(=O)Cc2cccc(C)c2)ncc1Cl`, the AC50 was > 26 µM (inactive).

Consider `O=C(NNc1ccnc2cc(Cl)ccc12)C1CCCCC1`, for which the AC50 is > 26 µM (inactive).

As for `CCN(Cc1ccccc1)C(c1cccs1)c1nnnn1C1CCCCC1` (centres undefined), the AC50 was > 26 µM (inactive).

As to `COc1ccc(C(=O)NC(=S)NNC(=O)c2cnccn2)cc1`, the AC50 is > 26 µM (inactive).

As to `Cc1cc(N/N=C/c2c(O)ccc3ccccc23)nc(-c2ccccc2O)n1`, the AC50 was > 26 µM (inactive).

For `NC1=NC[C@H](Cc2ccc(O)cc2)N1CCCCC1CCCCC1`, the AC50 is > 26 µM (inactive).

Values taken from PubChem BioAssay AID463206 (Broad Institute, 2010).
